According to patent US7223865B2, “Chromogenic compounds, and use thereof as enzyme substrates” (Biomerieux, priority 2003, dated 2007):

Experiments:
Format in all cases: cell-based
Candida albicans (056) = assay: L-alanine-aminopeptidase activity on gelled medium, Example 2
Method: (§1) A gelled medium comprising L-Ala-4-AP-10-AA as substrate is prepared as follows: 46.37 g of Columbia agar are added to 1 liter of distilled water and then autoclaved. The reaction medium is separated into three media of equivalent volume. Each of these media comprises, respectively, 0.1 g/l, 0.2 g/l, 0.4 g/l of L-Ala-4-AP-10-AA provided by means of a stock solution in DMSO.
(§2) Microorganisms derived from the applicant's collection were seeded onto each of the media, by delimitation as three dials, using a suspension at 0.5 McFarland. The dishes were incubated at 37° C. for 48 hours. The colonies formed were examined visually after incubation for 24 and 48 hours. The color of these colonies and also the intensity of this color were noted.
(§3) The results are expressed as color intensity, using an arbitrary scale range of from 0 to 4 as a basis.

Citrobacter koseri (090) = assay: as above; conditions: for Intensity: scale 0 to 4
Method: as §1, §2, §3

[1] = test system: Enterococcus faecalis (075); assay: as above; conditions: for Intensity: scale 0 to 4
Method: as §1, §2, §3

Escherichia coli (032) [2] = assay: as above; conditions: for Intensity: scale 0 to 4
Method: as §1, §2, §3

[3] = test system: Klebsiella pneumoniae (023); assay: as above; conditions: for Intensity: scale 0 to 4
Method: as §1, §2, §3

Listeria innocua (036) [4] = assay: as above
Method: as §1, §2, §3

Proteus mirabilis (103) = assay: as above; conditions: for Intensity: scale 0 to 4
Method: as §1, §2, §3

[5] = test system: Staphylococcus aureus (070); assay: as above
Method: as §1, §2, §3

[6] = test system: Streptococcus pyogenes (067); assay: as above
Method: as §1, §2, §3

Citrobacter koseri (012) = assay: L-alanine-aminopeptidase activity on gelled medium, Example 4; conditions: 0.3 g/l, after the addition of HCl
Method: (§4) A gelled medium comprising L-Ala-2-MeOAPA or L-Ala-2,5-diMeOAPA is prepared as follows: 46.37 g of Columbia agar are added to 1 liter of distilled water and then autoclaved. This reaction medium is separated into two media of equivalent volume. Each of these media comprises, respectively: 0.3 g/l of L-Ala-2-MeOAPA, introduced by means of a stock solution in DMSO, and 0.3 g/l of L-Ala-2,5-diMeOAPA, also introduced by means of a stock solution in DMSO. Microorganisms derived from the applicant's collection were seeded onto each of the media, by delimitation as three dials, using a suspension at 0.5 McFarland. The dishes were incubated at 37° C. for 24 hours. The color of these colonies and also the intensity of this color were noted after the addition of HCl.

Escherichia coli (032) [7] = assay: as above; conditions: 0.3 g/l, after the addition of HCl
Method: as §4

Candida albicans (077) = assay: as above; conditions: 0.3 g/l, after the addition of HCl
Method: as §4, with “The dishes were incubated at 37° C. for 24 hours.” left out

[8] = test system: Enterobacter cloacae (061); assay: as above; conditions: 0.3 g/l, after the addition of HCl
Method: as §4, with “The dishes were incubated at 37° C. for 24 hours.” left out

[9] = test system: Enterococcus faecalis (117); assay: as above; conditions: for Color / Intensity: 0.3 g/l, after the addition of HCl
Method: as §4, with “The dishes were incubated at 37° C. for 24 hours.” left out

[10] = test system: Klebsiella pneumoniae (023); assay: as above; conditions: 0.3 g/l, after the addition of HCl
Method: as §4, with “The dishes were incubated at 37° C. for 24 hours.” left out

Listeria innocua (036) [11] = assay: as above; conditions: 0.3 g/l, after the addition of HCl
Method: as §4, with “The dishes were incubated at 37° C. for 24 hours.” left out

Proteus mirabilis (037) = assay: as above; conditions: 0.3 g/l, after the addition of HCl
Method: as §4, with “The dishes were incubated at 37° C. for 24 hours.” left out

[12] = test system: Staphylococcus aureus (035); assay: as above; conditions: 0.3 g/l, after the addition of HCl
Method: as §4, with “The dishes were incubated at 37° C. for 24 hours.” left out

[13] = test system: Streptococcus agalactiae (001); assay: as above; conditions: 0.3 g/l, after the addition of HCl
Method: as §4, with “The dishes were incubated at 37° C. for 24 hours.” left out

C=CC[n+]1c2ccccc2c(-c2ccc(NC(=O)[C@H](C)N)cc2)c2ccccc21.[Cl-] [L-Ala-4-AP-10-AA, L-alanyl-9-(4-aminophenyl)-10-allylacridinium chloride]
orange: Color ([1]; 0.2 g/l, 24 H) | Color ([1]; 0.2 g/l, 48 h) | Color ([1]; 0.4 g/l, 24 H) | Color ([1]; 0.4 g/l, 48 h)
2: Intensity (Citrobacter koseri (090); 0.2 g/l, 48 h) | Intensity (Escherichia coli (032) [2]; 0.2 g/l, 24 H) | Intensity (Escherichia coli (032) [2]; 0.2 g/l, 48 h) | Intensity ([3]; 0.2 g/l, 48 h)
traces: Intensity ([1]; 0.2 g/l, 24 H) | Intensity ([1]; 0.4 g/l, 24 H) | Intensity ([3]; 0.1 g/l, 24 H) | Intensity ([3]; 0.1 g/l, 48 h) | Intensity (Proteus mirabilis (103); 0.1 g/l, 24 H) | Intensity (Proteus mirabilis (103); 0.1 g/l, 48 h)
pink-: Color (Citrobacter koseri (090); 0.2 g/l, 24 H) | Color (Citrobacter koseri (090); 0.2 g/l, 48 h) | Color (Citrobacter koseri (090); 0.4 g/l, 24 H) | Color (Citrobacter koseri (090); 0.4 g/l, 48 h) | Color (Escherichia coli (032) [2]; 0.2 g/l, 24 H) | Color (Escherichia coli (032) [2]; 0.2 g/l, 48 h) | Color (Escherichia coli (032) [2]; 0.4 g/l, 24 H) | Color (Escherichia coli (032) [2]; 0.4 g/l, 48 h) | Color ([3]; 0.2 g/l, 24 H) | Color ([3]; 0.2 g/l, 48 h) | Color ([3]; 0.4 g/l, 24 H) | Color ([3]; 0.4 g/l, 48 h) | Color (Proteus mirabilis (103); 0.2 g/l, 24 H) | Color (Proteus mirabilis (103); 0.2 g/l, 48 h) | Color (Proteus mirabilis (103); 0.4 g/l, 24 H) | Color (Proteus mirabilis (103); 0.4 g/l, 48 h)
beige: Color (Citrobacter koseri (090); 0.1 g/l, 24 H) | Color (Citrobacter koseri (090); 0.1 g/l, 48 h) | Color (Escherichia coli (032) [2]; 0.1 g/l, 24 H) | Color (Escherichia coli (032) [2]; 0.1 g/l, 48 h) | Color ([3]; 0.1 g/l, 24 H) | Color ([3]; 0.1 g/l, 48 h) | Color (Proteus mirabilis (103); 0.1 g/l, 24 H) | Color (Proteus mirabilis (103); 0.1 g/l, 48 h)
0.5: Intensity (Citrobacter koseri (090); 0.1 g/l, 24 H) | Intensity (Citrobacter koseri (090); 0.1 g/l, 48 h) | Intensity ([1]; 0.2 g/l, 48 h) | Intensity (Escherichia coli (032) [2]; 0.1 g/l, 24 H) | Intensity (Escherichia coli (032) [2]; 0.1 g/l, 48 h) | Intensity (Proteus mirabilis (103); 0.2 g/l, 24 H)
colorless: Color (Candida albicans (056); 0.1 g/l, 24 H) | Color (Candida albicans (056); 0.1 g/l, 48 h) | Color (Candida albicans (056); 0.2 g/l, 24 H) | Color (Candida albicans (056); 0.2 g/l, 48 h) | Color (Candida albicans (056); 0.4 g/l, 24 H) | Color (Candida albicans (056); 0.4 g/l, 48 h) | Color ([1]; 0.1 g/l, 24 H) | Color ([1]; 0.1 g/l, 48 h) | Color (Listeria innocua (036) [4]; 0.1 g/l, 24 H) | Color (Listeria innocua (036) [4]; 0.1 g/l, 48 h) | Color (Listeria innocua (036) [4]; 0.2 g/l, 24 H) | Color (Listeria innocua (036) [4]; 0.2 g/l, 48 h) | Color (Listeria innocua (036) [4]; 0.4 g/l, 24 H) | Color (Listeria innocua (036) [4]; 0.4 g/l, 48 h) | Color ([6]; 0.1 g/l, 48 h) | Color ([6]; 0.2 g/l, 48 h) | Color ([6]; 0.4 g/l, 48 h)
inhibited: Color ([5]; 0.1 g/l, 24 H) | Color ([5]; 0.1 g/l, 48 h) | Color ([5]; 0.2 g/l, 24 H) | Color ([5]; 0.2 g/l, 48 h) | Color ([5]; 0.4 g/l, 24 H) | Color ([5]; 0.4 g/l, 48 h) | Color ([6]; 0.1 g/l, 24 H) | Color ([6]; 0.2 g/l, 24 H) | Color ([6]; 0.4 g/l, 24 H)
2.5: Intensity (Escherichia coli (032) [2]; 0.4 g/l, 24 H)
3.5: Intensity (Citrobacter koseri (090); 0.4 g/l, 48 h) | Intensity ([3]; 0.4 g/l, 48 h)
1: Intensity (Citrobacter koseri (090); 0.2 g/l, 24 H) | Intensity ([1]; 0.4 g/l, 48 h) | Intensity ([3]; 0.2 g/l, 24 H) | Intensity (Proteus mirabilis (103); 0.2 g/l, 48 h)
3: Intensity (Citrobacter koseri (090); 0.4 g/l, 24 H) | Intensity (Escherichia coli (032) [2]; 0.4 g/l, 48 h) | Intensity ([3]; 0.4 g/l, 24 H) | Intensity (Proteus mirabilis (103); 0.4 g/l, 24 H) | Intensity (Proteus mirabilis (103); 0.4 g/l, 48 h)

COc1cc(-c2c3ccccc3nc3ccccc23)ccc1NC(=O)[C@H](C)N [L-Ala-2-MeOAPA, L-alanyl-2-methoxy-aminophenylacridine]
0: Intensity (Listeria innocua (036) [11]; 24 H) | Intensity (Listeria innocua (036) [11]; 48 h) | Intensity ([12]; 24 H) | Intensity ([12]; 48 h)
0.5: Intensity (Escherichia coli (032) [7]; 24 H)
orange: Color (Citrobacter koseri (012); 24 H) | Color (Escherichia coli (032) [7]; 24 H) | Color (Proteus mirabilis (037); 24 H) | Color (Proteus mirabilis (037); 48 h)
3.5: Intensity (Citrobacter koseri (012); 48 h) | Intensity (Escherichia coli (032) [7]; 48 h) | Intensity ([10]; 48 h)
colorless*: Color (Listeria innocua (036) [11]; 24 H) | Color (Listeria innocua (036) [11]; 48 h) | Color ([12]; 24 H) | Color ([12]; 48 h)
inhibited: Color (Candida albicans (077); 24 H) | Color (Candida albicans (077); 48 h) | Color ([9]; 24 H) | Color ([9]; 48 h) | Color ([13]; 24 H) | Color ([13]; 48 h)
1.5: Intensity (Proteus mirabilis (037); 48 h)
2: Intensity (Citrobacter koseri (012); 24 H) | Intensity ([8]; 24 H) | Intensity ([8]; 48 h)
1: Intensity (Proteus mirabilis (037); 24 H)
pink: Color (Citrobacter koseri (012); 48 h) | Color (Escherichia coli (032) [7]; 48 h) | Color ([8]; 24 H) | Color ([8]; 48 h) | Color ([10]; 24 H) | Color ([10]; 48 h)
3: Intensity ([10]; 24 H)

COc1cc(-c2c3ccccc3nc3ccccc23)c(OC)cc1NC(=O)[C@H](C)N [L-Ala-2,5-diMeOAPA, L-alanyl-2,5-dimethoxyaminophenylacridine]
orange: Color (Citrobacter koseri (012); 24 H) | Color ([10]; 24 H) | Color (Proteus mirabilis (037); 48 h)
0.5: Intensity ([9]; 24 H) | Intensity (Proteus mirabilis (037); 48 h)
0: Intensity (Candida albicans (077); 24 H) | Intensity (Candida albicans (077); 48 h) | Intensity (Listeria innocua (036) [11]; 24 H) | Intensity (Listeria innocua (036) [11]; 48 h) | Intensity (Proteus mirabilis (037); 24 H) | Intensity ([12]; 24 H) | Intensity ([12]; 48 h) | Intensity ([13]; 24 H) | Intensity ([13]; 48 h)
exhibits an activity: L-alanine-aminopeptidase activity ([9]; after incubation for 48 hours)
colorless: Color (Candida albicans (077); 24 H) | Color (Candida albicans (077); 48 h) | Color (Listeria innocua (036) [11]; 24 H) | Color (Listeria innocua (036) [11]; 48 h) | Color (Proteus mirabilis (037); 24 H) | Color ([12]; 24 H) | Color ([12]; 48 h) | Color ([13]; 24 H) | Color ([13]; 48 h)
3: Intensity ([9]; 48 h)
1.5: Intensity (Escherichia coli (032) [7]; 24 H) | Intensity ([8]; 24 H)
2.5: Intensity (Citrobacter koseri (012); 48 h) | Intensity ([10]; 48 h)
Yellow-orange: Color (Citrobacter koseri (012); 48 h) | Color (Escherichia coli (032) [7]; 24 H) | Color (Escherichia coli (032) [7]; 48 h) | Color ([8]; 24 H) | Color ([8]; 48 h) | Color ([9]; 24 H) | Color ([9]; 48 h) | Color ([10]; 48 h)
1: Intensity (Citrobacter koseri (012); 24 H) | Intensity ([10]; 24 H)
2: Intensity (Escherichia coli (032) [7]; 48 h) | Intensity ([8]; 48 h)
